Measured values taken from publication PMC12305662, “Fragment-Based Development of Small Molecule Inhibitors Targeting Mycobacterium tuberculosis Cholesterol Metabolism” (Journal of Medicinal Chemistry, 2025).

Experiments:
CYP142 = CYP142 (Mycobacterium tuberculosis, UniProt P9WPL5); settings: fragment 1 mM, P450 4-6 µM; relative to DMSO (418.5 nm)
CYP125 = CYP125 (Mycobacterium tuberculosis, UniProt P9WPP1); format: binding; settings: fragment 1 mM, P450 4-6 µM; Soret shift relative to DMSO (393 nm)
Sequence of CYP125 (P9WPP1 whole entry, the tested form may be a part): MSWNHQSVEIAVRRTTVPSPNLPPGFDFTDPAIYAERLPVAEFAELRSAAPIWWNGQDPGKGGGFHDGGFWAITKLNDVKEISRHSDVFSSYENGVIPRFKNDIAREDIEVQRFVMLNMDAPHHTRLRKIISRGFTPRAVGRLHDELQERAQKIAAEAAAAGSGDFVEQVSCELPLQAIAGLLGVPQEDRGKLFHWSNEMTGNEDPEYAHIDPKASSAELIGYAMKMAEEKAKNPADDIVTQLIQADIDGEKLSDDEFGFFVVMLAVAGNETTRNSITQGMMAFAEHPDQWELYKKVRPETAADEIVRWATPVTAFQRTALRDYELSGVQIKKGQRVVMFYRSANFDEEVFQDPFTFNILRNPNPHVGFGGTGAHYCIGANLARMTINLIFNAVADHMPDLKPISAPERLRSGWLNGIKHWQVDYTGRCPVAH

CYP121 = CYP121 (Mycobacterium tuberculosis, UniProt P9WPP7); settings: fragment 1 mM, P450 4-6 µM; relative to DMSO (417 nm)
Sequence of CYP121 (P9WPP7 whole entry, the tested form may be a part): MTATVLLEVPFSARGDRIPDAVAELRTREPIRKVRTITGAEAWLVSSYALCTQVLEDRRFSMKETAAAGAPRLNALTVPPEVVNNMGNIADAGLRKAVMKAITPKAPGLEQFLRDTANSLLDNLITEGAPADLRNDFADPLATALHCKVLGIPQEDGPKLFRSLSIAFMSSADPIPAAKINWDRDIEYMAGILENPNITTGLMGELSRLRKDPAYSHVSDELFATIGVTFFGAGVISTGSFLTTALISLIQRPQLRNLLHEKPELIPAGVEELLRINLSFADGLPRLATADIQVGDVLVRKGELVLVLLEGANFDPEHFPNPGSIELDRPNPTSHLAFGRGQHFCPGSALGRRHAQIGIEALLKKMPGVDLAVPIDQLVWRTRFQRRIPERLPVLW

CYP143 = CYP143 (Mycobacterium tuberculosis, UniProt P9WPL3); settings: fragment 1 mM, P450 4-6 µM; relative to DMSO (416 nm)
Sequence of CYP143 (P9WPL3 whole entry, the tested form may be a part): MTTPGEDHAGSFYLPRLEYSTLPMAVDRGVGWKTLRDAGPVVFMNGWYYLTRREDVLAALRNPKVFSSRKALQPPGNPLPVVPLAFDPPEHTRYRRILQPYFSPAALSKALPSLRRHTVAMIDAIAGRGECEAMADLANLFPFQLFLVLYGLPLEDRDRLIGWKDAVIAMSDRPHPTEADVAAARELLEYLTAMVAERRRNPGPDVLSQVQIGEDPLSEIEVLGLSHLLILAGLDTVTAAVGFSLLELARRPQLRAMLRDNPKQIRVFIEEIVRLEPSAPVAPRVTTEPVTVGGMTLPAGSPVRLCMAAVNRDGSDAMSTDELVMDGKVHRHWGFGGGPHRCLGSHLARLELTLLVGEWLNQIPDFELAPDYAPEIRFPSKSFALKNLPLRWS

CYP144 = CYP144 (Mycobacterium tuberculosis, UniProt P9WPL1); settings: fragment 1 mM, P450 4-6 µM; relative to DMSO (421 nm)
Sequence of CYP144 (P9WPL1 whole entry, the tested form may be a part): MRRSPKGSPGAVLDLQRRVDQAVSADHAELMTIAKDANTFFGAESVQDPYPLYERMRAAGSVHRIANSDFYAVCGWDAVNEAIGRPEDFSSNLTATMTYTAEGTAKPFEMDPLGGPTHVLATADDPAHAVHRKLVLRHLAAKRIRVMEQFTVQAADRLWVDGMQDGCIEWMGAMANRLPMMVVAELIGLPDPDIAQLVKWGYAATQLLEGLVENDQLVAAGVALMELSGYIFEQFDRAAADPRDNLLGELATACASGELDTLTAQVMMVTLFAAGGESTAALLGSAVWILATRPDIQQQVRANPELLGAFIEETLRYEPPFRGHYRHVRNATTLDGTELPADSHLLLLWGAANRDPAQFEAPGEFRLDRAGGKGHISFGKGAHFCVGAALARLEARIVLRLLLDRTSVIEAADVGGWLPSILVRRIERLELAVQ

CYP124 = CYP124 (Mycobacterium tuberculosis, UniProt P9WPP3); settings: fragment 1 mM, P450 4-6 µM; relative to DMSO (419 nm)
Sequence of CYP124 (P9WPP3 whole entry, the tested form may be a part): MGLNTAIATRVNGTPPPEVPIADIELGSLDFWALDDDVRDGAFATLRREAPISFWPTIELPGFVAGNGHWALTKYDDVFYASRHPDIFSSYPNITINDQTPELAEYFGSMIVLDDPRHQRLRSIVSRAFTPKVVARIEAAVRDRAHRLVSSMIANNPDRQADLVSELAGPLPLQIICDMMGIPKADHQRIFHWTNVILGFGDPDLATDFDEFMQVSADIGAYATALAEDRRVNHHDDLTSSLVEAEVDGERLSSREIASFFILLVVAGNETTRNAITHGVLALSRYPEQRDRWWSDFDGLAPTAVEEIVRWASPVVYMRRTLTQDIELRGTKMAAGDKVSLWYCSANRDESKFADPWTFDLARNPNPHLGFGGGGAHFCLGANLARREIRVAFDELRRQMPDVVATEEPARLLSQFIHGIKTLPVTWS

CYP126 = CYP126 (Mycobacterium tuberculosis, UniProt P9WPN9); settings: fragment 1 mM, P450 4-6 µM; relative to DMSO (418 nm)
Sequence of CYP126 (P9WPN9 whole entry, the tested form may be a part): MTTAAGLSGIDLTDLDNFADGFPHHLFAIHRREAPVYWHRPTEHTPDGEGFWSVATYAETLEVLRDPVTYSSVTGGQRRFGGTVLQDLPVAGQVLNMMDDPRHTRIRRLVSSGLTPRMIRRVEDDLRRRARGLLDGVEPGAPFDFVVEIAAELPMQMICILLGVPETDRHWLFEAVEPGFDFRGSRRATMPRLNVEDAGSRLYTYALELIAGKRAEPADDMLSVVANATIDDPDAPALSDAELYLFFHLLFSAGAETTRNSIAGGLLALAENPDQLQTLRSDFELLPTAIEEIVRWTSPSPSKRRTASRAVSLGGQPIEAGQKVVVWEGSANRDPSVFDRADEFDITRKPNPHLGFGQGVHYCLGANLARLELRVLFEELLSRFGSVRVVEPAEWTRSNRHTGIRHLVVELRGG

Sequence of CYP142 (P9WPL5 whole entry, the tested form may be a part): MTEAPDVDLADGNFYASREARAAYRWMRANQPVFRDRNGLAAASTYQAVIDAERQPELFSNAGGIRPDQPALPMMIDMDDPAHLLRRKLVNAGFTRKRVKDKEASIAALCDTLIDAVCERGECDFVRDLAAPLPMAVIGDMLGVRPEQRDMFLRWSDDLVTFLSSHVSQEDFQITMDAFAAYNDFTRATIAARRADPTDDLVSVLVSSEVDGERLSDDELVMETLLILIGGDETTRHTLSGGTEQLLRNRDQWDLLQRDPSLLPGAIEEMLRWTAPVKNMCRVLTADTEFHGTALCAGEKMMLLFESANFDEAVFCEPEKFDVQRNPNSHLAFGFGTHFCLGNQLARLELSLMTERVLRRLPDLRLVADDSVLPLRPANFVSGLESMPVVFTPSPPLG

O=C(O)c1ccc(-c2cccnc2)cc1 [compound 53]
Δλmax (nm) CYP142, fragment screen (CYP142): 0 nm | Δλmax (nm) CYP125, fragment screen (CYP125): 0 nm | Δλmax (nm) CYP121, fragment screen (CYP121): 0 nm | Δλmax (nm) CYP143, fragment screen (CYP143): 1 nm | Δλmax (nm) CYP144, fragment screen (CYP144): 0 nm | Δλmax (nm) CYP124, fragment screen (CYP124): 0 nm | Δλmax (nm) CYP126, fragment screen (CYP126): 0 nm

CC(C)c1cc(C(=O)O)[nH]n1 [compound 46]
Δλmax (nm) CYP142, fragment screen (CYP142): 0 nm | Δλmax (nm) CYP125, fragment screen (CYP125): 0 nm | Δλmax (nm) CYP121, fragment screen (CYP121): 0 nm | Δλmax (nm) CYP143, fragment screen (CYP143): -0.5 nm | Δλmax (nm) CYP144, fragment screen (CYP144): 0 nm | Δλmax (nm) CYP124, fragment screen (CYP124): 0 nm | Δλmax (nm) CYP126, fragment screen (CYP126): 0 nm

Cc1cc(N)n(-c2ccccc2)n1 [compound 6]
Δλmax (nm) CYP142, fragment screen (CYP142): 0 nm | Δλmax (nm) CYP125, fragment screen (CYP125): 0 nm | Δλmax (nm) CYP121, fragment screen (CYP121): 0 nm | Δλmax (nm) CYP143, fragment screen (CYP143): 0.5 nm | Δλmax (nm) CYP144, fragment screen (CYP144): 0 nm | Δλmax (nm) CYP124, fragment screen (CYP124): 0 nm | Δλmax (nm) CYP126, fragment screen (CYP126): 0 nm

O=C1CCN(c2ccccc2)N1 [compound 64]
Δλmax (nm) CYP142, fragment screen (CYP142): 1.5 nm | Δλmax (nm) CYP125, fragment screen (CYP125): 0 nm | Δλmax (nm) CYP121, fragment screen (CYP121): 0 nm | Δλmax (nm) CYP143, fragment screen (CYP143): 1 nm | Δλmax (nm) CYP144, fragment screen (CYP144): 0 nm | Δλmax (nm) CYP124, fragment screen (CYP124): -1 nm | Δλmax (nm) CYP126, fragment screen (CYP126): 0 nm

OCc1ccc(Br)cn1 [compound 29]
Δλmax (nm) CYP142, fragment screen (CYP142): 0 nm | Δλmax (nm) CYP125, fragment screen (CYP125): 0 nm | Δλmax (nm) CYP121, fragment screen (CYP121): 0 nm | Δλmax (nm) CYP143, fragment screen (CYP143): 0.5 nm | Δλmax (nm) CYP144, fragment screen (CYP144): 0 nm | Δλmax (nm) CYP124, fragment screen (CYP124): 0 nm | Δλmax (nm) CYP126, fragment screen (CYP126): 0 nm

Cc1ccc(=O)[nH]n1 [compound 7]
Δλmax (nm) CYP142, fragment screen (CYP142): 0 nm | Δλmax (nm) CYP125, fragment screen (CYP125): 0 nm | Δλmax (nm) CYP121, fragment screen (CYP121): 0 nm | Δλmax (nm) CYP143, fragment screen (CYP143): 0 nm | Δλmax (nm) CYP144, fragment screen (CYP144): 0 nm | Δλmax (nm) CYP124, fragment screen (CYP124): 0 nm | Δλmax (nm) CYP126, fragment screen (CYP126): 0 nm

Cc1cc(C)n(-c2ccc(N)cc2)n1 [compound 16]
Δλmax (nm) CYP142, fragment screen (CYP142): 0 nm | Δλmax (nm) CYP125, fragment screen (CYP125): 0 nm | Δλmax (nm) CYP121, fragment screen (CYP121): -1 nm | Δλmax (nm) CYP143, fragment screen (CYP143): 0.5 nm | Δλmax (nm) CYP144, fragment screen (CYP144): 0 nm | Δλmax (nm) CYP124, fragment screen (CYP124): 0 nm | Δλmax (nm) CYP126, fragment screen (CYP126): 0 nm

O=C(O)c1ccccc1-n1cccn1 [compound 22]
Δλmax (nm) CYP142, fragment screen (CYP142): 0 nm | Δλmax (nm) CYP125, fragment screen (CYP125): 0 nm | Δλmax (nm) CYP121, fragment screen (CYP121): 0 nm | Δλmax (nm) CYP143, fragment screen (CYP143): 0 nm | Δλmax (nm) CYP144, fragment screen (CYP144): 0 nm | Δλmax (nm) CYP124, fragment screen (CYP124): 0 nm | Δλmax (nm) CYP126, fragment screen (CYP126): 0 nm

Cc1cc(C(=O)O)[nH]n1 [compound 32]
Δλmax (nm) CYP142, fragment screen (CYP142): 0 nm | Δλmax (nm) CYP125, fragment screen (CYP125): 0 nm | Δλmax (nm) CYP121, fragment screen (CYP121): 0 nm | Δλmax (nm) CYP143, fragment screen (CYP143): -0.5 nm | Δλmax (nm) CYP144, fragment screen (CYP144): 0 nm | Δλmax (nm) CYP124, fragment screen (CYP124): 0 nm | Δλmax (nm) CYP126, fragment screen (CYP126): 0 nm
